From patent US20140212800A1, “ELECTROPHOTOGRAPHIC PHOTOSENSITIVE MEMBER, PROCESS CARTRIDGE AND ELECTROPHOTOGRAPHIC APPARATUS” (CANON KABUSHIKI KAISHA, priority 2013, published 2014)

Assay: Solubility of the charge transporting substance in 100 g of first / second solvent
Type: physicochemical
Conditions: 23° C., 1 atmosphere; for Solubility Y1: in 100 g of toluene (first solvent)
Experimental: The charge transporting layer satisfying the expressions (4-1) to (4-5) is formed by drying a coat of a charge-transporting-layer coating liquid containing the charge transporting substance, the binder resin, and the following first solvent and second solvent. Additionally, when the solubility of the charge transporting substance in 100 g of the first solvent in an environment at 23° C. under 1 atmosphere is designated as Y1(g), and the solubility of the charge transporting substance in 100 g of the second solvent in an environment at 23° C. under 1 atmosphere is designated as Y2(g), solubility Y1 and solubility Y2 satisfy the following expression (6).
Each of electrophotographic photosensitive members was produced in the same manner as in Example 1 except that the charge transporting substance represented by the formula (CTM-2), polyester resin A having the structural unit represented by the formula (1-18) and o-xylene in Example 1 were changed as shown in Table 1.

SMILES	Solubility Y1 [g]	Solubility Y2 (in 100 g of acetophenone (second solvent)) [g]	Solubility Y2 (in 100 g of methyl benzoate (second solvent)) [g]
Cc1ccc(N(C=C(c2ccccc2)c2ccccc2)c2ccc(-c3ccc(N(C=C(c4ccccc4)c4ccccc4)c4ccc(C)cc4C)cc3)cc2)c(C)c1 [CTM-3]	25		
C(/C=C/c1cccc(N(c2ccccc2)c2ccc(-c3ccc(N(c4ccccc4)c4cccc(/C=C/C=C/c5ccccc5)c4)cc3)cc2)c1)=C\c1ccccc1 [CTM-2]	20	8	8
